Drawing on article PMC10824666 (Nature Cancer, 2023), this text covers remaining activity for three compounds.

Holding throughout (test): biochemical
Parameters in all cases: Eurofins DiscoverX kinase panel, competitive binding assay at 1 uM, percent of DMSO control
Holding throughout (details): competitive binding, percent of DMSO control

Assay [1] concerns the target ERN1 (Homo sapiens, UniProt O75460). An outline of the steps: (§1)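 Competitive binding assay across a 96-kinase panel with KIF18A compounds at 1 µM; values given as percentage of control (POC), single experiment.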
In assay [2] the target is MAP3K1 (Homo sapiens, UniProt Q13233). The gist of the method: as §1
Assay [3] has as its target NEK4 (Homo sapiens, UniProt P51957). An outline of the steps:
as §1

Assay [4] deals with MAP4K1 (Homo sapiens, UniProt Q92918). An outline of the steps: as §1
In assay [5] the target is STK32B (Homo sapiens, UniProt Q9NY57). The gist of the method: as §1
In assay [6] the target is GSK3B (Homo sapiens, UniProt P49841). An outline of the steps:
as §1

Assay [7] concerns the target T1, MLTK (Homo sapiens, UniProt Q9NYL2).
T1 construct: gene MAP3K20
An outline of the steps: as §1

Assay [8] deals with ALK (Homo sapiens, UniProt Q9UM73). The gist of the method: as §1
In assay [9] the target is T2, DMPK (Homo sapiens, UniProt Q09013).
T2 sequence (Q09013 1-629): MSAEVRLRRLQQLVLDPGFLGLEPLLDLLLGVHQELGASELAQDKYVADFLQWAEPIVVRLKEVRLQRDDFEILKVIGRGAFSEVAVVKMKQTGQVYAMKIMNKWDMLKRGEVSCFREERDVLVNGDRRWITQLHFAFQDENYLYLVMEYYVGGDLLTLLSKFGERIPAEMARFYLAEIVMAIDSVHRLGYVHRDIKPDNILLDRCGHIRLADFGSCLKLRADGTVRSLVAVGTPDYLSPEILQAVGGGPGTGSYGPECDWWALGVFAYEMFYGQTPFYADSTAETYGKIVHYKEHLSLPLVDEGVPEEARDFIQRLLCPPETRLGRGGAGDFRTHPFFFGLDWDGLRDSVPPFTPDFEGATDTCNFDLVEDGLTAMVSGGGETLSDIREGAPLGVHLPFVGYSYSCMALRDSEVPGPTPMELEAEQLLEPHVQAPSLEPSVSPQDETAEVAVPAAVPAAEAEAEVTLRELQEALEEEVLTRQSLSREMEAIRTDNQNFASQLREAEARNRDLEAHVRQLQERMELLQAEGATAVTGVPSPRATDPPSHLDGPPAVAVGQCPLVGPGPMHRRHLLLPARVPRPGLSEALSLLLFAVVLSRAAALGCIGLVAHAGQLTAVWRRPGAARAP
The gist of the method:
as §1

In assay [10] the target is T3, PI3K alpha (Homo sapiens, UniProt P42336).
T3 construct: gene PIK3CA
The gist of the method:
as §1

Where [11] appears, read: read-out: Kinome Profiling performed by Eurofins DiscoverX / AM-0277, 1.0 µM / POC.
The mark [12] stands for this setting: read-out: Kinome Profiling performed by Eurofins DiscoverX / AM-1882, 1.0 µM / POC.
[13] abbreviates: read-out: Kinome Profiling performed by Eurofins DiscoverX / AM-5308, 1.0 µM / POC.

Each structure is given as a SMILES string. Read-outs that look alike come from different tables or passages of the source.

MAP4K1, sequence (Q92918 whole entry): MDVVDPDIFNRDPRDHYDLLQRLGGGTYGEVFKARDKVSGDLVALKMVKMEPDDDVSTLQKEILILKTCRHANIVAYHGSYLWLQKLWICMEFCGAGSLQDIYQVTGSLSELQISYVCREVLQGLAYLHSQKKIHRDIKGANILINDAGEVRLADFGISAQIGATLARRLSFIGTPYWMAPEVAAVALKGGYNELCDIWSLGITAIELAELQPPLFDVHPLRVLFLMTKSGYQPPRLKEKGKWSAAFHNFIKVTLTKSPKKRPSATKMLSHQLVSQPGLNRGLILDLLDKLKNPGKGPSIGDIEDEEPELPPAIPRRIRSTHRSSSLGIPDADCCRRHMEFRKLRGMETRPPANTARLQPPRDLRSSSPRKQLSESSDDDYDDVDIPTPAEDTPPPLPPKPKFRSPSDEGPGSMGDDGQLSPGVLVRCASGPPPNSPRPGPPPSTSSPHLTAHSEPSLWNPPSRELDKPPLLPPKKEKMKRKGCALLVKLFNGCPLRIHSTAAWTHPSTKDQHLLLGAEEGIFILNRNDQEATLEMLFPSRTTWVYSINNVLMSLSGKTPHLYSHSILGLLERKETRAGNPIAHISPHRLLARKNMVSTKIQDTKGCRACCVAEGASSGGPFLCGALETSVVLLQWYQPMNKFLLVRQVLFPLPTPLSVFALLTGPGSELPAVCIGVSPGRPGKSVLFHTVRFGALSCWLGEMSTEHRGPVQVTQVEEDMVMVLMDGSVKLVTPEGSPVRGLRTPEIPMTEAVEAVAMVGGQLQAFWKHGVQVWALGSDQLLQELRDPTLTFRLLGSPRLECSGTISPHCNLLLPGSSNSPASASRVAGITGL
STK32B, sequence (Q9NY57 whole entry): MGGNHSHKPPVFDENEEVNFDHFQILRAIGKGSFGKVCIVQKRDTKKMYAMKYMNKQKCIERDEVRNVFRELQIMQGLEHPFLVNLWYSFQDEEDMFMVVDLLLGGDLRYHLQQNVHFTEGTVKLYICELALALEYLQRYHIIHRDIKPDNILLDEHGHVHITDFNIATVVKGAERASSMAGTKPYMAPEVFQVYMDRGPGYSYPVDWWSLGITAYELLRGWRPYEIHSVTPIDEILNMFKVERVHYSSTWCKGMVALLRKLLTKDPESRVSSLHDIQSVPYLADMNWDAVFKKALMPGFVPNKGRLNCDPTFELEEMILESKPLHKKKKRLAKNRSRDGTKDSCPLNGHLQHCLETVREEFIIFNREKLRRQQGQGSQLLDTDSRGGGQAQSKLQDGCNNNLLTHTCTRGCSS
GSK3B, sequence (P49841 whole entry): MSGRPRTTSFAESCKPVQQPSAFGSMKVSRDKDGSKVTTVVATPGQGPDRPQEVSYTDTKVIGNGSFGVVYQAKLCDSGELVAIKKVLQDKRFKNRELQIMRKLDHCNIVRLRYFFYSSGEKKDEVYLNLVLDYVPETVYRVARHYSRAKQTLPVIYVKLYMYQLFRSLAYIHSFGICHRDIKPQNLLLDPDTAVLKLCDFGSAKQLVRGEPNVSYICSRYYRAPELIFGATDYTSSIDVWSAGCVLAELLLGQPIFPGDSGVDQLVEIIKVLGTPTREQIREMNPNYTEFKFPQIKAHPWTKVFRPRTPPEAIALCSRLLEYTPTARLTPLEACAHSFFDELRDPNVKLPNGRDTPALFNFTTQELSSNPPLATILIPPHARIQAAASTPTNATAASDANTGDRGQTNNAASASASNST
ALK, sequence (Q9UM73 whole entry): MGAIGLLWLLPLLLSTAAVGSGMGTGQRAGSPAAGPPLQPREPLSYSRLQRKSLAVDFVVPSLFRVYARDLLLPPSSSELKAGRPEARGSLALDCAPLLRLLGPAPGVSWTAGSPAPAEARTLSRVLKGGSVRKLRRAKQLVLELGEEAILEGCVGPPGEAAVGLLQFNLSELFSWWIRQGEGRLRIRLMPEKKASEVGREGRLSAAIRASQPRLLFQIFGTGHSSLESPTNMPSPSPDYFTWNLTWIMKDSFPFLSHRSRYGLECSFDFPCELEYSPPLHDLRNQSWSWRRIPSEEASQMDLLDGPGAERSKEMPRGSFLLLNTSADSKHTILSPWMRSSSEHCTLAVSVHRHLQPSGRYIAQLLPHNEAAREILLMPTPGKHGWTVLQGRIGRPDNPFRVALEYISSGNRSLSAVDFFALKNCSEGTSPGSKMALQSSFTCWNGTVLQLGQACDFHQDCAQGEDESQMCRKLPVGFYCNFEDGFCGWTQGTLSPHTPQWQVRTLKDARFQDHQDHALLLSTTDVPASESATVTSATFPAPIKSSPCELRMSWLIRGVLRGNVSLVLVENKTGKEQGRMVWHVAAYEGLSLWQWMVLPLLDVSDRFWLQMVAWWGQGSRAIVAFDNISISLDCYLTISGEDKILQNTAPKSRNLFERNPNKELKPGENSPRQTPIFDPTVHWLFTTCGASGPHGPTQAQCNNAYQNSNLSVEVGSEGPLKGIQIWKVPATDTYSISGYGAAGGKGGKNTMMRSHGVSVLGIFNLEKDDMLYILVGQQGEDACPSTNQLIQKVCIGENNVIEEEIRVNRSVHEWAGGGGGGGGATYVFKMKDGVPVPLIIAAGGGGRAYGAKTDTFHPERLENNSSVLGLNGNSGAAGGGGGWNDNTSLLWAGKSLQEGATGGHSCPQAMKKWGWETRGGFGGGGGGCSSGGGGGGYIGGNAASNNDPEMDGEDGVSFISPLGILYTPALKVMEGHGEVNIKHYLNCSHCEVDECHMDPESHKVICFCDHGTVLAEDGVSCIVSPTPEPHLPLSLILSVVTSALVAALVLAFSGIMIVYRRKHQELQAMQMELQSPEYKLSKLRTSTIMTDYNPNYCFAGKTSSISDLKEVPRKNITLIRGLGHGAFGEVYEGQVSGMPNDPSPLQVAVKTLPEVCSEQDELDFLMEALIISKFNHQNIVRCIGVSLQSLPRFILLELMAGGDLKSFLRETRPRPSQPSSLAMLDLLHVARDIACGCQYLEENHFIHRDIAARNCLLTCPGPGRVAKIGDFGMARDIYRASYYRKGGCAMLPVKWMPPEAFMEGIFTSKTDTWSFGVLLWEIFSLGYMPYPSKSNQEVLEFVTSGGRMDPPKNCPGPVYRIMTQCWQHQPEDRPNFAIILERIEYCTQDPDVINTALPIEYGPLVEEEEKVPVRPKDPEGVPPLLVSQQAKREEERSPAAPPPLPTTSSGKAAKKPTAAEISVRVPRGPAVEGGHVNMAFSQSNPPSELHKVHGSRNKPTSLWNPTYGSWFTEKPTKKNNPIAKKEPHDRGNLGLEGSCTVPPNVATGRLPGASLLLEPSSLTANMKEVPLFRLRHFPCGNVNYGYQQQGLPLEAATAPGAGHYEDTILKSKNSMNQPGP
T1 sequence (Q9NYL2 whole entry): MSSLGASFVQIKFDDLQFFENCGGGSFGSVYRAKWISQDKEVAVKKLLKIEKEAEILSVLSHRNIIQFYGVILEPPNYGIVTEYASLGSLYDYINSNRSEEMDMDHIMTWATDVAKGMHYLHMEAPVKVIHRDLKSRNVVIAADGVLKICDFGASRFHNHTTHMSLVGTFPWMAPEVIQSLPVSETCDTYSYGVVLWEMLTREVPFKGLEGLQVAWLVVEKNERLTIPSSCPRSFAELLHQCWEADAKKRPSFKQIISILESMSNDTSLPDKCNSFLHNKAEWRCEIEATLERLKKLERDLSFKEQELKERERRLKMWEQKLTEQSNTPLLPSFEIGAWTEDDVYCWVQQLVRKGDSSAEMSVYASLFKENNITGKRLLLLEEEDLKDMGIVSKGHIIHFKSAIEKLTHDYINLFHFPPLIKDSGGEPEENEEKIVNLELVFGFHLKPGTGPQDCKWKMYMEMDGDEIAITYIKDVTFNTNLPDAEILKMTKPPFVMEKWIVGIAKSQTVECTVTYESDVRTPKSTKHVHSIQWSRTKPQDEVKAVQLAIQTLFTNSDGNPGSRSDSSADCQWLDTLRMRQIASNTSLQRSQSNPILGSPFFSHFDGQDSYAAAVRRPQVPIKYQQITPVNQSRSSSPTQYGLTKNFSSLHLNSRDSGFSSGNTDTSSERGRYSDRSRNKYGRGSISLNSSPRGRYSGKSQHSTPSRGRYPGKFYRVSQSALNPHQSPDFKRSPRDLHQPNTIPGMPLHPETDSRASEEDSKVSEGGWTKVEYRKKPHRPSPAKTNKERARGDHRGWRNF
ERN1, sequence (O75460 whole entry): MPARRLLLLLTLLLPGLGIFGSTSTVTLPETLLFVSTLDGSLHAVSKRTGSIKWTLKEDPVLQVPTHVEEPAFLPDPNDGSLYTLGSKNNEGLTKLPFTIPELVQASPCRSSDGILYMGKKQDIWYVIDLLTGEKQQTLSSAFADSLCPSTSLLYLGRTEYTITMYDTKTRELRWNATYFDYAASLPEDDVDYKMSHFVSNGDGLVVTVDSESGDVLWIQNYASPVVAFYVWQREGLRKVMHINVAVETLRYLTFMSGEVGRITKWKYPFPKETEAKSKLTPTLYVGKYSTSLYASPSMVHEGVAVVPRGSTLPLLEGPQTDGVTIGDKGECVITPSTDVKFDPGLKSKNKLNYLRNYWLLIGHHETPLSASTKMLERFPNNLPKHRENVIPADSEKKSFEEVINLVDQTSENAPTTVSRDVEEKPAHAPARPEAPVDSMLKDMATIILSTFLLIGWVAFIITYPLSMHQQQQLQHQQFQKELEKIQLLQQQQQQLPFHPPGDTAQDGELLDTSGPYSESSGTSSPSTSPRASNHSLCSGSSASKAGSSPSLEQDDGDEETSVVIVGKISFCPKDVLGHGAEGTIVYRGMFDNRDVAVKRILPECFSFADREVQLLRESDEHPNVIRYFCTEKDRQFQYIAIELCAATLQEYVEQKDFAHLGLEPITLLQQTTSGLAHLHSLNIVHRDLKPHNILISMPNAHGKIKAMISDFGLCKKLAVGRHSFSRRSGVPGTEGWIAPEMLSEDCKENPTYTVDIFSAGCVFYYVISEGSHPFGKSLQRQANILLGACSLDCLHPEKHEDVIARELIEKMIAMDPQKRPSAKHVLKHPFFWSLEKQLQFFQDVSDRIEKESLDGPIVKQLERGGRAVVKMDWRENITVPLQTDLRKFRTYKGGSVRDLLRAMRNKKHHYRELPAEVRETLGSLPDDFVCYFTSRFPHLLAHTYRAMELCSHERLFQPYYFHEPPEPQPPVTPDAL

As for `CC(C)(CO)Nc1ccc(C(=O)Nc2cccc(S(=O)(=O)C3CCCC3)c2)c(N2CCC3(CC2)CC3)n1` [AM-0277], the remaining activity at 1 µM in assay [1] (setting [11]) was 100%; in [2] (setting [11]) it was 100%; in assay [3] (setting [11]), 100%; in [4] (setting [11]) it was 88%; in assay [5] (setting [11]), 100%; in [6] (setting [11]), 100%. The remaining activity at 1 µM came to 90% in assay [7] (setting [11]), 100% in assay [8] (setting [11]), 100% in assay [9] (setting [11]) and 100% in assay [10] (setting [11]).

As for `CC(C)(C)NS(=O)(=O)c1cccc(NC(=O)c2ccc(S(=O)(=O)NC(C)(C)C)cc2N2CCC3(CC2)CC3)c1` [AM-1882], the remaining activity at 1 µM in [1] (setting [12]) was found to be 100%; in assay [2] (setting [12]), 76.5%; in [3] (setting [12]), 89%; in assay [4] (setting [12]) it was 90%; in assay [5] (setting [12]) it was 100%; in [6] (setting [12]) it was 100%. Moreover, the remaining activity at 1 µM was 84.5% in [7] (setting [12]), 81% in assay [8] (setting [12]), 99.5% in assay [9] (setting [12]) and 100% in assay [10] (setting [12]).

Regarding `C[C@@H]1CN(c2cccc(NC(=O)c3ccc(NS(=O)(=O)CCO)cc3N3CCC4(CC3)CC4)n2)CCO1` [AM-5308], the remaining activity at 1 µM in assay [1] (setting [13]) is 80%; in [2] (setting [13]), 100%; in assay [3] (setting [13]), 100%; in assay [4] (setting [13]) it was 98.5%; in assay [5] (setting [13]), 96%; in [6] (setting [13]), 100%. Moreover, the remaining activity at 1 µM in assay [7] (setting [13]) came to 100%; in [8] (setting [13]), 89%; in assay [9] (setting [13]), 92%; in assay [10] (setting [13]), 91.5%.
